Target: rhCatC (Cathepsin C) (Homo sapiens, UniProt P53634)
Test: In Vitro CatC Enzyme Assay
Type: biochemical
Conditions: read-out: Cat C Enzy (Cathepsin C inhibitory activity, IC50)
Procedure: In Vitro CatC Enzyme Assay
The CatC enzyme assay was performed in black 384-well plate. Firstly, rhCatC (440 nM) was activated by rhCatL (300 nM) in activation buffer (25 mM MES, 5 mM DTT, pH 6.0) at room temperature for 2 h and then activated rhCatC was diluted to 4.4 nM in assay buffer (25 mM MES, 50 mM NaCl, 5 mM DTT, 0.01% (v/v) Triton X100, pH 6.0), 14 μL activated rhCatC and 1 μL compound in 10% DMSO or 10% DMSO were incubated at room temperature for 3 h, and 5 μL substrate (Gly-Phe-AFC) was added to final concentration of 100 μM. After 60 min reaction, the product of the reaction was measured in the Enspire plate reader using Ex λ400 nm and Em λ505 nm for AFC. A standard irreversible CatC inhibitor 10 by AstraZeneca (J. Med. Chem. 2014, 57, 2357-2367) was used as an inhibitor control in the assay.

Sequence of rhCatC (Cathepsin C) (P53634 25-134 limits assumed): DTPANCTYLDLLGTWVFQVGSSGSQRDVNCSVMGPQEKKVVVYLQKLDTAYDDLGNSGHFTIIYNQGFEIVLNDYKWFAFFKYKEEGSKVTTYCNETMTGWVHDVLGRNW
Sequence of rhCatC (Cathepsin C) (P53634 231-394 limits assumed): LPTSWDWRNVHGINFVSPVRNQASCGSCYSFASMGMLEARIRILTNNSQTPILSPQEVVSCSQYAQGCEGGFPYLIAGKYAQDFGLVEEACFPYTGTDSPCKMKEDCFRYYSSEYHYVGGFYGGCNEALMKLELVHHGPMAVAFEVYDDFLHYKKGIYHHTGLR
Sequence of rhCatC (Cathepsin C) (P53634 395-463 limits assumed): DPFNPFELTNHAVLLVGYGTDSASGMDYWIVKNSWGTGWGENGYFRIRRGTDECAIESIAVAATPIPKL

| IC50 [µM] | SMILES |
| --- | --- |
| 0.003 to 0.3 | C=CC(=O)Nc1cc(Oc2nc(Nc3ccc(N4CCN(C)CC4)cc3OC)ccc2N2CCCC2)ccc1C [Compound 29, N-(5-((6-((2-methoxy-4-(4-methylpiperazin-1-yl)phenyl)amino)-3-(pyrrolidin-1-yl)pyridin-2-yl)oxy)-2-methylphenyl)acrylamide] |
| 0.003 to 0.3 | C=CC(=O)Nc1cc(Oc2nc(Nc3ccc(N4CCN(C)CC4)cc3OC)ccc2N2CCOCC2)ccc1C [Compound 30, N-(5-((6-((2-methoxy-4-(4-methylpiperazin-1-yl)phenyl)amino)-3-morpholinopyridin-2-yl)oxy)-2-methylphenyl)acrylamide] |
| 0.003 to 0.3 | C=CC(=O)Nc1cc(Oc2nc(Nc3ccc(N4CCN(C)CC4)cc3OC)ccc2N2CCC(O)C2)ccc1C (stereo not shown) [Compound 31, N-(5-((3-(3-hydroxypyrrolidin-1-yl)-6-((2-methoxy-4-(4-methylpiperazin-1-yl)phenyl)amino)pyridin-2-yl)oxy)-2-methylphenyl)acrylamide] |
| 0.003 to 0.3 | C=CC(=O)Nc1cc(Oc2nc(Nc3ccc(N4CCN(C)CC4)cc3OC)ccc2N2CCCC(O)C2)ccc1C (stereo not shown) [Compound 32, N-(5-((3-(3-hydroxypiperidin-1-yl)-6-((2-methoxy-4-(4-methylpiperazin-1-yl)phenyl)amino)pyridin-2-yl)oxy)-2-methylphenyl)acrylamide] |
| 0.003 to 0.3 | C=CC(=O)Nc1cc(Oc2nc(Nc3ccc(N4CCN(C)CC4)cc3OC)ccc2N2CCN(C)CC2)ccc1C [Compound 33, N-(5-((6-((2-methoxy-4-(4-methylpiperazin-1-yl)phenyl)amino)-3-(4-methylpiperazin-1-yl)pyridin-2-yl)oxy)-2-methylphenyl)acrylamide] |
| 0.003 to 0.3 | C=CC(=O)Nc1cc(Oc2nc(Nc3ccc(N4CCN(C)CC4)cc3OC)ccc2-c2ccccc2)ccc1C [Compound 34, N-(5-((6-((2-methoxy-4-(4-methylpiperazin-1-yl)phenyl)amino)-3-phenylpyridin-2-yl)oxy)-2-methylphenyl)acrylamide] |
| 0.003 to 0.3 | C=CC(=O)Nc1cc(Oc2nc(Nc3ccc(N4CCN(C)CC4)nc3OC)ccc2N2CCCCC2)ccc1C [Compound 35, N-(5-((6-((2-methoxy-6-(4-methylpiperazin-1-yl)pyridin-3-yl)amino)-3-(piperidin-1-yl)pyridin-2-yl)oxy)-2-methylphenyl)acrylamide] |
| 0.003 to 0.3 | C=CC(=O)Nc1cc(Oc2nc(Nc3ccc(N4CCN(C(C)=O)CC4)cc3OC)ccc2N2CCCCC2)ccc1C [Compound 36, N-(5-((6-((4-(4-acetylpiperazin-1-yl)-2-methoxyphenyl)amino)-3-(piperidin-1-yl)pyridin-2-yl)oxy)-2-methylphenyl)acrylamide] |
| 0.003 to 0.3 | C=CC(=O)Nc1cc(Oc2nc(Nc3ccc(N4CCC(N(C)C)CC4)cc3OC)ccc2N2CCCCC2)ccc1C [Compound 37, N-(5-((6-((4-(4-(dimethylamino)piperidin-1-yl)-2-methoxyphenyl)amino)-3-(piperidin-1-yl)pyridin-2-yl)oxy)-2-methylphenyl)acrylamide] |
| 0.003 to 0.3 | C=CC(=O)Nc1cc(Oc2nc(Nc3ccc(N4CCN(C)CC4)cc3)ccc2N2CCCCC2)ccc1C [Compound 38, N-(2-methyl-5-((6-((4-(4-methylpiperazin-1-yl)phenyl)amino)-3-(piperidin-1-yl)pyridin-2-yl)oxy)phenyl)acrylamide] |
| 0.003 to 0.3 | C=CC(=O)Nc1cc(Oc2nc(Nc3ccc(N4CCN(C)CC4)cc3OC)ccc2N2CCCC2)ccc1OC [Compound 39, N-(2-methoxy-5-((6-((2-methoxy-4-(4-methylpiperazin-1-yl)phenyl)amino)-3-(pyrrolidin-1-yl)pyridin-2-yl)oxy)phenyl)acrylamide] |
| 0.3 to 30 | C=CC(=O)Nc1cc(Oc2cccc(Nc3ccc(N4CCN(C)CC4)cc3OC)n2)ccc1OC [Compound 40, N-(2-methoxy-5-((6-((2-methoxy-4-(4-methylpiperazin-1-yl)phenyl)amino)pyridin-2-yl)oxy)phenyl)acrylamide] |
| 0.3 to 30 | C=CC(=O)Nc1cccc(Oc2nc(Nc3ccc(N4CCN(C)CC4)cc3OC)ccc2N2CCCC2)c1C [Compound 41, N-(3-((6-((2-methoxy-4-(4-methylpiperazin-1-yl)phenyl)amino)-3-(pyrrolidin-1-yl)pyridin-2-yl)oxy)-2-methylphenyl)acrylamide] |
| 0.3 to 30 | C=CC(=O)Nc1ccc(C)c(Oc2nc(Nc3ccc(N4CCN(C)CC4)cc3OC)ccc2N2CCCC2)c1 [Compound 42, N-(3-((6-((2-methoxy-4-(4-methylpiperazin-1-yl)phenyl)amino)-3-(pyrrolidin-1-yl)pyridin-2-yl)oxy)-4-methylphenyl)acrylamide] |
| 0.003 to 0.3 | C=CC(=O)Nc1cc(Oc2cccc(Nc3ccc(N4CCN(C)CC4)cc3OC)n2)ccc1C [Compound 43, N-(5-((6-((2-methoxy-4-(4-methylpiperazin-1-yl)phenyl)amino)pyridin-2-yl)oxy)-2-methylphenyl)acrylamide] |
| 0.003 to 0.3 | C=CC(=O)Nc1cc(Oc2nc(Nc3ccc(N4CCN(C)CC4)cc3OC)ccc2N2CCCC2)ccc1C(F)(F)F [Compound 44, N-(5-((6-((2-methoxy-4-(4-methylpiperazin-1-yl)phenyl)amino)-3-(pyrrolidin-1-yl)pyridin-2-yl)oxy)-2-(trifluoromethyl)phenyl)acrylamide] |
| 0.003 to 0.3 | C=CC(=O)Nc1cc(Oc2nc(Nc3ccc(N4CCN(C)CC4)cc3OC)ccc2N2CCCCC2)ccc1C(F)(F)F [Compound 45] |
| 0.3 to 30 | COc1cc(N2CCN(C)CC2)ccc1Nc1ccc(N2CCCCC2)c(Oc2ccc(C)c(NC(=O)C=C(C)C)c2)n1 [Compound 46, N-(5-((6-((2-methoxy-4-(4-methylpiperazin-1-yl)phenyl)amino)-3-(piperidin-1-yl)pyridin-2-yl)oxy)-2-methylphenyl)-3-methylbut-2-enamide] |
| 0.3 to 30 | CC#CC(=O)Nc1cc(Oc2nc(Nc3ccc(N4CCN(C)CC4)cc3OC)ccc2N2CCCCC2)ccc1C [Compound 47, N-(5-((6-((2-methoxy-4-(4-methylpiperazin-1-yl)phenyl)amino)-3-(piperidin-1-yl)pyridin-2-yl)oxy)-2-methylphenyl)but-2-ynamide] |
| 0.003 to 0.3 | C#CC(=O)Nc1cc(Oc2nc(Nc3ccc(N4CCN(C)CC4)cc3OC)ccc2N2CCCCC2)ccc1C [Compound 48, N-(5-((6-((2-methoxy-4-(4-methylpiperazin-1-yl)phenyl)amino)-3-(piperidin-1-yl)pyridin-2-yl)oxy)-2-methylphenyl)propiolamide] |
| 0.3 to 30 | C=C(F)C(=O)Nc1cc(Oc2nc(Nc3ccc(N4CCN(C)CC4)cc3OC)ccc2N2CCCCC2)ccc1C [Compound 49, 2-fluoro-N-(5-((6-((2-methoxy-4-(4-methylpiperazin-1-yl)phenyl)amino)-3-(piperidin-1-yl)pyridin-2-yl)oxy)-2-methylphenyl)acrylamide] |
| 0.003 to 0.3 | C=CC(=O)Nc1cc(Oc2nc(Nc3ccc(N4CCN(C)CC4)cc3OC)ccc2Cl)ccc1C(F)(F)F [Compound 50, N-(5-((3-chloro-6-((2-methoxy-4-(4-methylpiperazin-1-yl)phenyl)amino)pyridin-2-yl)oxy)-2-(trifluoromethyl)phenyl)acrylamide] |
| 0.003 to 0.3 | C=CC(=O)Nc1cc(Oc2cccc(Nc3ccc(N4CCN(C)CC4)cc3OC)n2)ccc1C(F)(F)F [Compound 51, N-(5-((6-((2-methoxy-4-(4-methylpiperazin-1-yl)phenyl)amino)pyridin-2-yl)oxy)-2-(trifluoromethyl)phenyl)acrylamide] |
| 0.003 to 0.3 | C=CC(=O)Nc1cccc(Oc2nc(Nc3ccc(N4CCN(C)CC4)cc3OC)ccc2N2CCCCC2)c1 [Compound 52, N-(3-((6-((2-methoxy-4-(4-methylpiperazin-1-yl)phenyl)amino)-3-(piperidin-1-yl)pyridin-2-yl)oxy)phenyl)acrylamide] |
| 0.003 to 0.3 | C=CC(=O)Nc1cccc(Oc2nc(Nc3ccc(N4CCN(C)CC4)cc3OC)ccc2N2CCCCCC2)c1 [Compound 53, N-(3-((3-(azepan-1-yl)-6-((2-methoxy-4-(4-methylpiperazin-1-yl)phenyl)amino)pyridin-2-yl)oxy)phenyl)acrylamide] |
| 0.003 to 0.3 | C=CC(=O)Nc1cc(Oc2nc(Nc3ccc(N4CCNCC4)cc3OC)ccc2N2CCCCC2)ccc1C [Compound 54] |
| 0.3 to 30 | C=CC(=O)Nc1cc(Oc2nc(Nc3ccc(N4CCC(N(C)C)CC4)cn3)ccc2N2CCCCC2)ccc1C [Compound 55] |
| 0.003 to 0.3 | C#CCN1CCN(c2ccc(Nc3ccc(N4CCCCC4)c(Oc4ccc(C)c(NC(=O)C=C)c4)n3)c(OC)c2)CC1 [Compound 56] |

Reference: US20210114983A1, “Cathepsin C inhibitors” (National Institute of Biological Sciences, Beijing, priority 2018, published 2021)
